Broadly, the inhibition is the drop in the measured response relative to a control, in per cent. As usually defined, the IC50 is the concentration that inhibits the measured activity by half.

Where two headings read alike, the source gives them in different places.

These results are taken from article PMC4450297, “Screening Active Compounds from Garcinia Species Native to China Reveals Novel Compounds Targeting the STAT/JAK Signaling Pathway” (BioMed Research International, 2015).

One assay relates to J82. Briefly: Cell panel screen (CellTiter-Glo). It counts as cell-based, human. Particulars: Homo sapiens, read-out: Percent Inhibition. An outline of the steps:
(§1)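 Single-dose 20 μM (final), 72 h exposure; DMSO vehicle controls. Luminescence after 10-min reagent incubation → % growth inhibition = (untreated − treated)/(untreated − no-cell background) × 100.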
On the technique in general: ATP-based viability assays read luminescence as a measure of living cells.

A further assay deals with HPAF-II. Put plainly: Cell panel screen (CellTiter-Glo). Type of assay: cell-based, human. Particulars: Homo sapiens, read-out: Percent Inhibition. A digest of the protocol:
as §1

A further assay relates to C8166. Briefly: Cell panel screen (CellTiter-Glo). It counts as cell-based, human. Particulars: Homo sapiens, read-out: Percent Inhibition. An outline of the steps:
as §1

The subject of the next assay is Bel-7402. Briefly: Cell panel screen (CellTiter-Glo). It counts as cell-based, human. The settings on record: Homo sapiens, read-out: Percent Inhibition. A digest of the protocol: as §1
The subject of the next assay is TCCSUP. Put plainly: Cell panel screen (CellTiter-Glo). It counts as cell-based, human. The settings on record: Homo sapiens, TCC-SUP, read-out: Percent Inhibition. A digest of the protocol:
as §1

The next assay concerns SW13. Put plainly: Cell panel screen (CellTiter-Glo). Type of assay: cell-based, human. The settings on record: Homo sapiens, read-out: Percent Inhibition. A digest of the protocol: as §1
For another assay, the system named is RL95. Put plainly: Cell panel screen (CellTiter-Glo). Type of assay: cell-based, human. The settings on record: Homo sapiens, read-out: Percent Inhibition. An outline of the steps:
as §1

The next assay relates to T47D. Put plainly: Cell panel screen (CellTiter-Glo). The settings on record: Homo sapiens, read-out: Percent Inhibition. It counts as cell-based, human. An outline of the steps:
as §1

Another assay deals with NCI-H1650 cells. Briefly: Soft-agar colony formation assay. It counts as cell-based. The settings on record: Homo sapiens, 168 h; NCI-H1650 cells in soft agar, one week, Alamar Blue; read-out: IC50, cell colony formation. As for the experimental part:
NCI-H1650 cells were plated in soft agar (Takara, Japan) at a density of 4000 cells/well in a 96-well plate. For the base layer, 1.2% agar stock solution was melted in an autoclave, cooled to 40°C in a water bath, and then mixed with RPMI1640 medium to obtain a solution of 0.6% agar in RPMI1640 containing 10% FBS. A cell suspension placed on the top layer was composed of RPMI1640 with 10% FBS and 0.4% agarose in each well. Then, the cells were incubated overnight. Compounds were added into the wells, and the NCI-H1650 cells were incubated for one week. After 7 days, alamar blue was added to the agar plate wells containing NCI-H1650 cell, and the plates were returned to the incubator. The fluorescence intensity (excitation 560 nm, emission 590 nm) was measured after 24 h.

Assay [1] has as its system STAT3, ERK, AKT phosphorylation in NCI-H1650 cells. Put plainly: Western blot analysis in NCI-H1650 cells. It counts as cell-based, human. The settings on record: 8 h. On the procedure:
(§2) Floating and adherent cells were harvested and treated with ice-cold RIPA lysis buffer (50 mM Tris-HCl, pH 7.5, 0.5% cholic acid, 2 mM EDTA, 10% glycerol, 150 mM NaCl, 0.1% SDS, and 1% Triton X-100) containing complete Mini Protease Inhibitor Cocktail (Roche Applied Science, Indianapolis, IN). Proteins were separated by sodium dodecyl sulfate polyacrylamide gel electrophoresis and transferred to nitrocellulose membranes. Membranes were blocked with 5% BSA in washing buffer (100 mM NaCl, 10 mM Tris-HCl, pH 7.5, and 0.1% Tween-20) for 1 hr at room temperature and incubated with the respective primary antibodies in 5% BSA in washing buffer overnight at 4°C with shaking. The membranes were probed with the following antibodies: p44/42 (Cat#9107, CST), phospho-p44/42 (Cat#4370, CST), AKT (Cat#9272, CST), phospho-AKT (ser473) (Cat#9271, CST), STAT3 (Cat#9139, CST), and phospho-STAT3 (Tyr705) (Cat#9131, CST). Membranes were then washed and incubated with anti-mouse or anti-rabbit fluorescent secondary antibodies (LICOR, US) diluted in washing buffer for 1 h at room temperature with shaking. Protein bands were detected using an Odyssey Imaging system (LICOR, US).

Assay [2] has as its system phosphorylation of STAT3 upon IL-6 stimulation in HepG2 cells. Briefly: Western blot, IL-6-stimulated STAT3 activation. Type of assay: cell-based, human. The settings on record: pretreated 2 h, IL-6 10 ng/mL 15 min. On the procedure:
as §2
Background: Immunoblotting shows a protein as a band on a membrane.

Setting [3] is: J82 (Urinary bladder), 20 micromolar, 72 hrs.
Where [4] appears, read: HPAF-II (Pancreas), 20 micromolar, 72 hrs.
Setting [5] is: C8166 (Leukemia), 20 micromolar, 72 hrs.
Where [6] appears, read: Bel-7402 (Liver), 20 micromolar, 72 hrs.
Where [7] appears, read: TCCSUP (Urinary bladder), 20 micromolar, 72 hrs.
The mark [8] stands for this setting: SW13 (Adrenal gland), 20 micromolar, 72 hrs.
The mark [9] stands for this setting: RL95 (Uterus), 20 micromolar, 72 hrs.
[10] abbreviates: T47D (Breast), 20 micromolar, 72 hrs.

As for `CC(C)=CCC/C(C)=C/Cc1c(O)c(CC=C(C)C)c2c(c1O)C(=O)C1=C[C@@H]3C[C@H]4C(C)(C)O[C@@](CC=C(C)C)(C3=O)[C@@]14O2` [GB32], the inhibition at 20 µM in the assay with J82 (J82, 72 h) is 99%; in the assay with HPAF-II (HPAF-II, 72 h), 99%; in the assay on C8166 (C8166, 72 h), 99%; with Bel-7402 (Bel-7402, 72 h), 99%; in the assay on TCCSUP (72 h), 99%; in the assay with SW13 (SW13, 72 h), 99%. Moreover, the inhibition at 20 µM worked out at 99% in the assay on RL95 (72 h) and 99% in the assay with T47D (T47D, 72 h). Also, the IC50 in the assay with NCI-H1650 cells came to 3130 ± 300 nM.
Consider `CC(C)=CCC[C@@]1(C)C=Cc2c(O)c3c(c(CCC(C)(C)O)c2O1)O[C@]12C(=C[C@@H]4C[C@H]1C(C)(C)O[C@@]2(C/C=C(/C)C(=O)O)C4=O)C3=O` [GB39, 33-hydroxyepigambogic acid], for which the inhibition at 20 µM in the assay with J82 (setting [3]), with HPAF-II (setting [4]), in the assay on C8166 (setting [5]), in the assay with Bel-7402 (setting [6]), with TCCSUP (setting [7]) and in the assay on SW13 (setting [8]) was 100% throughout. In addition, the inhibition at 20 µM in the assay on RL95 (setting [9]) and in the assay with T47D (setting [10]) was 100% in each case. The “Phosphorylation of ERK and AKT” value in [1] is “inhibited”. In addition, the “STAT3 expression and its phosphorylation (Tyr705)” value in [1] was “inhibited STAT3 expression and its phosphorylation in a dose-dependent manner”. Also, the IC50 with NCI-H1650 cells was found to be 1260 ± 10 nM. Moreover, the “phosphorylation of STAT3 upon IL-6 stimulation” value in assay [2] is recorded as “efficiently suppressed”.
In the case of `CC(C)=CCC[C@@]1(C)C=Cc2c(O)c3c(c(C/C=C(\C)CO)c2O1)O[C@]12C(=C[C@@H]4C[C@H]1C(C)(C)O[C@@]2(C/C=C(/C)C(=O)O)C4=O)C3=O` [GB40, 35-hydroxyepigambogic acid], the inhibition at 20 µM in the assay with J82 (setting [3]) came to 99%; with HPAF-II (setting [4]), 99%; with C8166 (setting [5]), 99%; in the assay with Bel-7402 (setting [6]), 99%; with TCCSUP (setting [7]), 99%; with SW13 (setting [8]), 98%. Further, the inhibition at 20 µM with RL95 (setting [9]) and in the assay on T47D (setting [10]) was 99% each time. Also, the “Phosphorylation of ERK and AKT” value in assay [1] is reported as “inhibited”. Also, the “STAT3 expression and its phosphorylation (Tyr705)” value in assay [1] is “inhibited STAT3 expression and its phosphorylation in a dose-dependent manner”. In addition, the IC50 in the assay on NCI-H1650 cells turned out to be 1070 ± 40 nM. Further, in assay [2], the “phosphorylation of STAT3 upon IL-6 stimulation” value was “efficiently suppressed”.
For the compound `CC(C)=CCC/C(C)=C/Cc1c(O)c(CC=C(C)C)c2c(c1O)C(=O)C1=C[C@@H]3C[C@H]4C(C)(C)O[C@@](C/C=C(\C)C=O)(C3=O)[C@@]14O2` [GB49], the inhibition at 20 µM was 98% with J82 (setting [3]); 98% in the assay with HPAF-II (setting [4]); 99% with C8166 (setting [5]); 98% with Bel-7402 (setting [6]); 99% with TCCSUP (setting [7]); 99% in the assay on SW13 (setting [8]). Besides, the inhibition at 20 µM in the assay on RL95 (setting [9]) and in the assay with T47D (setting [10]) was 99% throughout. In addition, the IC50 in the assay with NCI-H1650 cells is 3920 ± 130 nM.
As to `CC(C)=CCC/C(C)=C/Cc1c(O)c(CC=C(C)C)c2c(c1O)C(=O)C1=C[C@@H]3C[C@H]4C(C)(C)O[C@@](C/C=C(\C)C(=O)O)(C3=O)[C@@]14O2` [GB63], the inhibition at 20 µM in the assay with J82 (setting [3]) turned out to be 99%; with HPAF-II (setting [4]), 99%; in the assay on C8166 (setting [5]), 100%; with Bel-7402 (setting [6]), 99%; in the assay with TCCSUP (setting [7]), 99%; with SW13 (setting [8]) it was 99%. The inhibition at 20 µM in the assay with RL95 (setting [9]) and with T47D (setting [10]) was 99% throughout. The IC50 with NCI-H1650 cells amounted to 2660 ± 150 nM.
